Test results as given in patent US10919896B2, “Preparation and uses of pyrimidinone derivatives” (Cancer Research Technology Limited, priority 2016, dated 2021).

Tests used:
[1] = target: Cdc7/Dbf4 (Homo sapiens, UniProt O00311); experiment: Cdc7 Biochemical Assay Method 3: Cdc7/Dbf4 Enzyme TR-FRET Assay measuring pS40MCM2; settings: 1 μM ATP, read-out: Biochemical Method 3 (pIC50) (converted)
Procedure, shortened: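 2.5 nM Cdc7/Dbf4 incubated with 100 nM biotinylated MCM2-derived peptide and 1 μM ATP, 120 minutes at 25° C. Phospho-S40 detected by TR-FRET using anti-pS40 Mcm2 antibody, terbium anti-rabbit secondary and streptavidin-Alexa Fluor488.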

[2] = tested on: Cdc7 (pS40MCM2 levels in HCT116 cells); experiment: Cdc7 Cell Pharmacodynamics Assay Method 2B: pS40MCM2 levels in HCT116 cells, 18 hours; assay type: cell-based; settings: Homo sapiens, HCT-116, read-out: Biomarker Method 2B (pEC50) (converted)
Source text: This protocol describes a method to investigate the inhibition of Cdc7 activity by measuring pS40MCM2 levels in cells, after treatment with compounds.
• HCT116 cells (ATCC, #CCL-247) • McCoys 5A with L-glutamine (Cellgro, #10-050-CV) • 10% FCS (Cellgro, #35-010-CV) • D-PBS without CaCl2 and MgCl2 (Cellgro, #21-031-CV) • Trypsin/EDTA (Cellgro, #25-052-CL) • BSA (Calbiochem, 126593) • Cell Extraction Buffer (Invitrogen FNN0011) • Protease inhibitor cocktail (Sigma P-2714) • PMSF 0.3M stock in DMSO (Sigma P7626) • Antibody-rabbit pMCM2 Ser40 (Abcam, AB133243) • Antibody-goat MCM2 (Bethyl #A300-122A) • Antibody-goat Anti Rabbit IgG HRP (Thermo, 31462) • SuperSignal ELISA Pico Chemiluminescent Substrate (Perbio Science UK Ltd 37069) • 10×PBS (Growcells, MRGF-6236) • Triton X100 (Sigma, P-T8787) • DMSO (Fisher, D128-1) • 2-Propanol (J. T. Baker, 9095-03) Method • Seed 1×10^6 HCT116 cells into each of two 175 cm^2 flask containing 30 mL Cell Growth Media and incubate at 37° C., 5% CO2 for 3 days. • Harvest the cells from one T175 cm^2 flask and count. • Dilute with Cell Growth Media to a cell density of 2×10^5. Dispense 100 μL to each well (20,000 HCT116 cells/well) of TC treated 96-well plate(s). • Allow cells to settle overnight in incubator set at 37° C. and 5% CO2. • Cell treatment: Transfer 0.25 μL/well from the compound plate to the wells of the cell plate(s). This is a 1:400 dilution of compound in the assay. • Once all cells are treated place the cells back to the incubator and incubate for either 6 hours (Method 2A) or 18 hours (Method 2B). • Dilute the capture antibody (total MCM2#A300-122A) 1 in 250 in the required volume of PBS (5 mL per assay plate, plus 5 mL for dead volume) and add 50 μL to each well of a Hybond plate except wells A12 & B12. Seal the plate and incubate at room temperature for a minimum of 2 hours. • Defrost aliquot of Invitrogen Cell Extraction Buffer (FNN0011) on ice and supplement with appropriate volume of both Sigma protease inhibitor cocktail (P-2714) and PMSF (final conc 1 mM from a 1 M stock in DMSO). • After the 6 hour or 18 hour cell treatment time, tap out the media from the assay plates and place them in the −70° C. freezer for at least 5 minutes. • Flick out the remaining liquid in the previously prepared capture Ab plate(s) and add 200 μL 2% BSA per well. Incubate for 1 hour at room temperature. • Remove plates from freezer and add 20 μL of ice cold complete lysis buffer. Incubate cells for 30 minutes at 4° C. • Add 30 μL per well 2% BSA • At the end of the 1 hour incubation, wash the Capture/ELISA plate(s) with Wash Buffer on the BioTek plate washer. • Transfer 40 μL per well of the lysis plate(s) to the same wells in the Capture/ELISA plate. Incubate cells overnight at 4° C. • At the end of the overnight incubation, wash the ELISA plate(s) with Wash Buffer on BioTek plate washer. • Prepare Detection Antibody Buffer and dispense 50 μL to all wells of ELISA plate(s) except wells G1 & H1. Cover plate and incubate at room temperature for 2 hours with gentle shaking. • At the end of the 2 hour incubation, wash the ELISA plate(s) with Wash Buffer on the BioTek plate washer. • Prepare the Conjugated Antibody Buffer and dispense 50 μL to all wells of ELISA plate(s). • Cover the plate and incubate at room temperature for 1 hour with gentle shaking. • At the end of the 1 hour incubation, wash the ELISA plate(s) with Wash Buffer on the BioTek plate washer. • Prepare Substrate Buffer and dispense 50 μL to all wells of ELISA plate(s). • Incubate for a minimum of 10 minutes and read plates on the EnVision 2100 Multilabel Reader (Mirror: Luminescence (404) & Luminescence 700 (212); Measurement Height: 6.5 mm; Measurement Time: 0.2 s). Method 3

Sequence of Cdc7/Dbf4 (O00311 whole entry): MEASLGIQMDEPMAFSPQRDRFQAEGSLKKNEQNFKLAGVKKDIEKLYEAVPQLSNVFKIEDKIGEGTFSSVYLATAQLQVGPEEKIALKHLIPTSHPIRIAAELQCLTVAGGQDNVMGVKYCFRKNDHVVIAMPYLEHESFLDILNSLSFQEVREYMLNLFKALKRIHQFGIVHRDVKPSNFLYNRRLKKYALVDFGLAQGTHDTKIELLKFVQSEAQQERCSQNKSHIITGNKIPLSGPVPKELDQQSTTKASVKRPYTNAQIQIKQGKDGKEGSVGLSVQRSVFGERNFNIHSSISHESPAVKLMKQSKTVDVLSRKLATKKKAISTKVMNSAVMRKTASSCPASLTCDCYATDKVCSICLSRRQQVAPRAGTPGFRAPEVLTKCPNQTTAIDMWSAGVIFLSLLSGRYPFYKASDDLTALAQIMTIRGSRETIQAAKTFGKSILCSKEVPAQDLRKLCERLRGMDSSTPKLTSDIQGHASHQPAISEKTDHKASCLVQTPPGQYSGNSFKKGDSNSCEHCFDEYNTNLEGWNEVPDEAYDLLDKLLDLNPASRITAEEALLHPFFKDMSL
Sequence of Cdc7/Dbf4 (Q9UBU7 whole entry partner): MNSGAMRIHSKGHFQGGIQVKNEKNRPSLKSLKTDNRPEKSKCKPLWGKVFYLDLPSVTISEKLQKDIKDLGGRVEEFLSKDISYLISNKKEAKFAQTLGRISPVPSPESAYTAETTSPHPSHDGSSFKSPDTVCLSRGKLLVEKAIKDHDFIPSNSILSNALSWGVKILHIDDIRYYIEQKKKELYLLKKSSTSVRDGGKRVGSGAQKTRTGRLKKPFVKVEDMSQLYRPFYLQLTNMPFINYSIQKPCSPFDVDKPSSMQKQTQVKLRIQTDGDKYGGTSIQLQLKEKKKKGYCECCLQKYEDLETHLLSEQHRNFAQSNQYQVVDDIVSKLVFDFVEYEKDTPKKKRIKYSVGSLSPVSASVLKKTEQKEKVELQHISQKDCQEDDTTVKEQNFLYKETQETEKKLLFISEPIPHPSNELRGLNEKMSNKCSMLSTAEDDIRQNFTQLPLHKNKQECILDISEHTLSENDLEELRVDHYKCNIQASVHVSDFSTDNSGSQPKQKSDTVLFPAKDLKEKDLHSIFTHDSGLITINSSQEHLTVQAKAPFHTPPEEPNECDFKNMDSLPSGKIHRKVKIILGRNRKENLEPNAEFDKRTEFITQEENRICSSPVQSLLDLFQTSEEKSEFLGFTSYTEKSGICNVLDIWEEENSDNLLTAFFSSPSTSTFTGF

## CC1CCNCCN1c1nc(-c2ccnc(F)c2)[nH]c(=O)c1Cl (stereo not drawn) [Compound 351]
[1]
  IC50: 1.35 nM
[2]
  EC50: 138 nM

## C[C@@H]1CN(c2nc(-c3ccnc(F)c3)[nH]c(=O)c2Cl)[C@H](C)CO1 [Compound 357]
[1]
  IC50: 2.09 nM
[2]
  EC50: 200 nM

## O=c1[nH]c(-c2ccnc(F)c2)nc(N2CCN3CCC[C@H]3C2)c1Cl [Compound 348]
[1]
  IC50: 1.95 nM
[2]
  EC50: 257 nM

## C[C@@H]1CNCCCN1c1nc(-c2ccnc(F)c2)[nH]c(=O)c1Cl [Compound 352]
[1]
  IC50: 3.63 nM
[2]
  EC50: 437 nM

## N#CC[C@H]1CN(c2nc(-c3ccnc(F)c3)[nH]c(=O)c2Cl)CCN1 [Compound 306]
[1]
  IC50: 1.29 nM
[2]
  EC50: 174 nM

## O=c1[nH]c(-c2ccnc(F)c2)nc(N2CCCOCC2)c1Cl [Compound 338]
[1]
  IC50: 0.708 nM
[2]
  EC50: 178 nM

## C[C@@H]1CN(c2nc(-c3ccnc(F)c3)[nH]c(=O)c2Cl)C[C@H](C)O1 [Compound 201]
[1]
  IC50: 4.17 nM
[2]
  EC50: 813 nM

## CC1CCN(c2nc(-c3ccnc(F)c3)[nH]c(=O)c2Cl)CCN1 (stereo not drawn) [Compound 303]
[1]
  IC50: 2.09 nM
[2]
  EC50: 126 nM

## O=c1[nH]c(-c2ccnc(F)c2)nc(N2CC[C@@H]3CNC[C@@H]32)c1Cl [Compound 261]
[1]
  IC50: 0.813 nM
[2]
  EC50: 537 nM

## CC1COCCCN1c1nc(-c2ccnc(F)c2)[nH]c(=O)c1Cl (stereo not drawn) [Compound 355]
[1]
  IC50: 2.69 nM
[2]
  EC50: 288 nM

## O=c1[nH]c(-c2ccnc(F)c2)nc(N2CCC(N3CCOCC3)CC2)c1Cl [Compound 244]
[1]
  IC50: 4.37 nM
[2]
  EC50: 398 nM

## O=c1[nH]c(-c2ccncc2)nc(N2CC(F)(F)OC(F)(F)C2)c1Cl [Compound 413, 5-chloro-2-(4-pyridyl)-4-(2,2,6,6-tetrafluoromorpholin-4-yl)-1H-pyrimidin-6-one]
[1]
  IC50: 1.38 nM
[2]
  EC50: 309 nM

## C[C@]1(N)CCN(c2nc(-c3ccnc(F)c3)[nH]c(=O)c2Cl)C1 [Compound 273]
[1]
  IC50: 0.646 nM
[2]
  EC50: 427 nM

## CC1(C)CN(c2nc(-c3ccnc(F)c3)[nH]c(=O)c2Cl)CCN1 [Compound 297]
[1]
  IC50: 3.24 nM
[2]
  EC50: 912 nM

## O=c1[nH]c(-c2ccnc(F)c2)nc(N2CCN(CC(F)F)CC2)c1Cl [Compound 350]
[1]
  IC50: 2.19 nM
[2]
  EC50: 155 nM

## O=c1[nH]c(-c2ccnc(F)c2)nc(N2CCCC23CCCNC3)c1Cl (stereo not drawn) [Compound 260]
[1]
  IC50: 1.41 nM
[2]
  EC50: 72.4 nM

## O=c1[nH]c(-c2ccnc(F)c2)nc(N2CCC3(COC3)C2)c1Cl [Compound 284]
[1]
  IC50: 2.09 nM
[2]
  EC50: 389 nM

## CC1(C)CN(c2nc(-c3ccnc(F)c3)[nH]c(=O)c2Cl)CCO1 [Compound 300]
[1]
  IC50: 3.02 nM
[2]
  EC50: 115 nM

## CC1(C)CN(c2nc(-c3ccnc(F)c3)[nH]c(=O)c2Cl)CCCO1 [Compound 301]
[1]
  IC50: 10.5 nM
[2]
  EC50: 1910 nM

## O=c1[nH]c(-c2ccnc(F)c2)nc(N2CCNC(C(F)(F)F)CC2)c1Cl (stereo not drawn) [Compound 296]
[1]
  IC50: 7.59 nM
[2]
  EC50: 1020 nM

## CN[C@H]1CCN(c2nc(-c3ccnc(F)c3)[nH]c(=O)c2Cl)C1 [Compound 271]
[1]
  IC50: 1.48 nM
[2]
  EC50: 295 nM

## O=c1[nH]c(-c2ccnc(F)c2)nc(N2CCCCC2)c1Cl [Compound 277]
[1]
  IC50: 1.07 nM
[2]
  EC50: 282 nM

## O=c1[nH]c(-c2ccnc(F)c2)nc(N2CCCC3(CCNC3)C2)c1Cl (stereo not drawn) [Compound 258]
[1]
  IC50: 0.832 nM
[2]
  EC50: 562 nM

## CN1CCCN(c2nc(-c3ccnc(F)c3)[nH]c(=O)c2Cl)CC1 [Compound 298]
[1]
  IC50: 4.07 nM
[2]
  EC50: 331 nM

## O=C1COCCN(c2nc(-c3ccnc(F)c3)[nH]c(=O)c2Cl)C1 [Compound 208]
[1]
  IC50: 0.49 nM
[2]
  EC50: 64.6 nM

## O=c1[nH]c(-c2ccnc(F)c2)nc(N2CCCC3NCCC32)c1Cl (stereo not drawn) [Compound 275]
[1]
  IC50: 0.794 nM
[2]
  EC50: 2090 nM

## CC1(F)CNCCN(c2nc(-c3ccnc(F)c3)[nH]c(=O)c2Cl)C1 (stereo not drawn) [Compound 304]
[1]
  IC50: 1.38 nM
[2]
  EC50: 214 nM

## CC1CN(c2nc(-c3ccnc(F)c3)[nH]c(=O)c2Cl)C(C)CO1 (stereo not drawn) [Compound 340]
[1]
  IC50: 2.51 nM
[2]
  EC50: 174 nM

## CC[C@@H]1COCCN1c1nc(-c2ccnc(F)c2)[nH]c(=O)c1Cl [Compound 335]
[1]
  IC50: 1.1 nM
[2]
  EC50: 457 nM

## CO[C@@H]1CCCN(c2nc(-c3ccnc(F)c3)[nH]c(=O)c2Cl)C1 [Compound 282]
[1]
  IC50: 2.63 nM
[2]
  EC50: 234 nM

## C[C@@H]1CCCCN1c1nc(-c2ccnc(F)c2)[nH]c(=O)c1Cl [Compound 281]
[1]
  IC50: 1.05 nM
[2]
  EC50: 457 nM

## CC1OCCN(c2nc(-c3ccnc(F)c3)[nH]c(=O)c2Cl)C1C (stereo not drawn) [Compound 359]
[1]
  IC50: 2 nM
[2]
  EC50: 27.5 nM

## O=c1[nH]c(-c2ccnc(F)c2)nc(N2CCN3CC(F)(F)C[C@H]3C2)c1Cl [Compound 347]
[1]
  IC50: 3.63 nM
[2]
  EC50: 316 nM
